Results published in patent US20160166604A1, “Thiol-Sensitive Positive Inotropes” (priority 2005, published 2016).
“And” between values parts separate entries of the source, which are not always exact repeats. Equal values may be shown once. “Also recorded” adds a separate entry of the source.

Columns and labels:
[1] = system: isolated mouse ventricular myocytes; test: Sarcomere shortening in field-stimulated isolated mouse ventricular myocytes; assay type: cell-based
Description: Wild type 2-4 month old mice were anesthetized with intraperitoneal pentobarbital sodium (100 mg/kg/ip). Hearts were perfused as previously described. Mongillo, M. et al., Circ. Res., 98, 226-234 (2006). To assess for sarcomere shortening, cells were imaged using field stimulation (Warner instruments) in an inverted fluorescence microscope (Diaphot 200; Nikon, Inc). Sarcomere length was measured by real-time Fourier transform (IonOptix MyoCam, CCCCD100M) and cell twitch amplitude is expressed as a percentage of resting cell length. Twitch kinetics was quantified by measuring the time to peak shortening and the time from peak shortening to 50% relaxation. For whole calcium transient measurements, myocytes were loaded with the Ca^2+ indicator fluo-4/AM (Molecular Probes, 20 μM for 30 min) and Ca^2+ transients were measured under field-stimulation at 0.5 Hz in perfusion solution by confocal laser scanning microscope (LSM510, Carl Zeiss). Digital image analysis used customer-designed programs coded in Interactive Data Language (IDL).
Nitroxyl (HNO) confers positive inotropy in vivo. Here, it was determined whether HNO action stems from a direct influence on sarcoplasmic reticulum (SR) Ca^2+ cycling, involving enhanced Ca^2+ release from ryanodine receptors (RyR2). Myocytes were isolated from ST mice, suspended in Tyrode's solution (1 mM Ca^2+) and field stimulated (0.5 Hz, 25° C.). Sarcomere shortening (SS) was assessed by real-time image analysis, Ca^2+ transients from Indo-1 fluorescence. RyR2 activity was determined by optical imaging of Ca^2+ release from single Ca^2+ release units.

[2] = system: cardiac myocytes from WT and Gαq overexpressing FVB/N mice; test: Sarcomere shortening in cardiac myocytes from WT and Gαq overexpressing mice; assay type: cell-based, mouse; settings: for increase in sarcomere shortening: Gαq myocytes
Description: Cardiac myocytes were isolated from WT and Gαq overexpressing 2-6 month old FVB/N mice, suspended in Tyrode's solution (1 mM calcium) and field stimulated at 0.5 Hz at 23° C. Sarcomere shortening (SS) was assessed by real-time image analysis; data are presented at steady-state (10 minutes drug infusion).

RyR2 = target: T1, RyR2 (Mus musculus, UniProt E9Q401); test: Spontaneous Ca2+ sparks and spark frequency in intact murine myocytes; assay type: cell-based
T1 construct: endogenous in cells; host or cells: freshly isolated adult mouse cardiac myocytes
Description: Freshly isolated mouse cardiac myocytes were loaded with the Ca^2+ indicator fluo-4/AM (Molecular Probes, 20 μM for 30 min). Confocal images were acquired using a confocal laser-scanning microscope (LSM510, Carl Zeiss) with a Zeiss Plan-Neofluor 40× oil immersion objective (NA≈1.3). Fluo-4/AM was excited by an argon laser (488 nm), and fluorescence was measured at >505 nm. Images were taken in the line-scan mode, with the scan line parallel to the long axis of the myocytes. Each image consisted of 512 line scans obtained at 1.92 ms intervals, each comprising 512 pixels at 0.10 μm separation. Digital image analysis used customer-designed programs coded in Interactive Data language (IDL) and a modified spark detection algorithm. Cheng, H. et al., Biophys. J., 76, 606-617 (1999).
Nitroxyl (HNO) confers positive inotropy in vivo. Here, it was determined whether HNO action stems from a direct influence on sarcoplasmic reticulum (SR) Ca^2+ cycling, involving enhanced Ca^2+ release from ryanodine receptors (RyR2). Myocytes were isolated from ST mice, suspended in Tyrode's solution (1 mM Ca^2+) and field stimulated (0.5 Hz, 25° C.). Sarcomere shortening (SS) was assessed by real-time image analysis, Ca^2+ transients from Indo-1 fluorescence. RyR2 activity was determined by optical imaging of Ca^2+ release from single Ca^2+ release units. The HNO donor Angeli's Salt (AS) induced dose-dependent inotropy (SS: 73±31% at 0.5 mM; 131±31% at 1 mM; all n=15, p<0.05 vs. base; <0.1 mM: no effect). In contrast, the NO donor DEA/NO reduced SS by 55-65% at 5-50 μM (both p<0.05 vs. base), with no effect at higher doses. […] However, co-infusion with the thiol-donating compound N-acetyl-L-cysteine (NAC, 3 mM) abolished AS inotropy.

cAMP = cAMP FRET imaging in neonatal rat cardiomyocytes; assay type: cell-based; settings: 1 mM AS, n=23, p=NS
Description: Primary cultures of cardiac ventricular myocytes from 1-3 days old Sprague Dawley rats (Charles River Laboratories, Wilmington, Mass.) were prepared as described. Dostal, D. E. et al., Am. J. Physiol., 263, […]-[…] (1992). Cells were transfected with a FRET-based sensor for cAMP (Zaccolo, M. et al., Science, 295, 1711-1715 (2002)) and imaged 48 hrs after transfection. During the experiments, cells were continuously perfused with HEPES buffered Ringer's modified saline (1 mmol/LCaCl2) at room temperature. Cells were imaged on an inverted Olympus IX50 microscope upon excitation at 430 nm. Mongillo, M. et al., Circ. Res., 98, 226-234 (2006). Image analysis was performed by using ImageJ (Rasband, W. S., ImageJ, National Institutes of Health, Bethesda, Md., USA). At each time point, FRET values were measured as the 480 nm/535 nm emission ratio intensity (R) and were normalized to the 480 nm/535 nm value at time 0s (R0). Agents that increase peak Ca^2+ transients coupled to increased sarcomere shortening often do so via a rise in intracellular cAMP and subsequent activation of protein kinase A ([…]. et al., Curr. Med. Chem., 10, 967-981 (2003). To test whether this applied to AS, real-time imaging of cAMP on transfected neonatal rat cardiomyocytes was performed with a cAMP FRET-probe. Zaccolo, M. et al., Science, 295, 1711-1715 (2002). Upon exposure to 1 mM AS, the FRET signal was unchanged (0.3%±0.1%, n=23, p=NS), whereas subsequent application of norepinephrine (10 μM) or phosphodiesterase inhibitor IBMX (100 μM) both increased it by 12% (p<10^-6) (FIG. 2A). Pre-treatment of adult mouse myocytes with the PKA inhibitor […]

T1 sequence (E9Q401 whole entry): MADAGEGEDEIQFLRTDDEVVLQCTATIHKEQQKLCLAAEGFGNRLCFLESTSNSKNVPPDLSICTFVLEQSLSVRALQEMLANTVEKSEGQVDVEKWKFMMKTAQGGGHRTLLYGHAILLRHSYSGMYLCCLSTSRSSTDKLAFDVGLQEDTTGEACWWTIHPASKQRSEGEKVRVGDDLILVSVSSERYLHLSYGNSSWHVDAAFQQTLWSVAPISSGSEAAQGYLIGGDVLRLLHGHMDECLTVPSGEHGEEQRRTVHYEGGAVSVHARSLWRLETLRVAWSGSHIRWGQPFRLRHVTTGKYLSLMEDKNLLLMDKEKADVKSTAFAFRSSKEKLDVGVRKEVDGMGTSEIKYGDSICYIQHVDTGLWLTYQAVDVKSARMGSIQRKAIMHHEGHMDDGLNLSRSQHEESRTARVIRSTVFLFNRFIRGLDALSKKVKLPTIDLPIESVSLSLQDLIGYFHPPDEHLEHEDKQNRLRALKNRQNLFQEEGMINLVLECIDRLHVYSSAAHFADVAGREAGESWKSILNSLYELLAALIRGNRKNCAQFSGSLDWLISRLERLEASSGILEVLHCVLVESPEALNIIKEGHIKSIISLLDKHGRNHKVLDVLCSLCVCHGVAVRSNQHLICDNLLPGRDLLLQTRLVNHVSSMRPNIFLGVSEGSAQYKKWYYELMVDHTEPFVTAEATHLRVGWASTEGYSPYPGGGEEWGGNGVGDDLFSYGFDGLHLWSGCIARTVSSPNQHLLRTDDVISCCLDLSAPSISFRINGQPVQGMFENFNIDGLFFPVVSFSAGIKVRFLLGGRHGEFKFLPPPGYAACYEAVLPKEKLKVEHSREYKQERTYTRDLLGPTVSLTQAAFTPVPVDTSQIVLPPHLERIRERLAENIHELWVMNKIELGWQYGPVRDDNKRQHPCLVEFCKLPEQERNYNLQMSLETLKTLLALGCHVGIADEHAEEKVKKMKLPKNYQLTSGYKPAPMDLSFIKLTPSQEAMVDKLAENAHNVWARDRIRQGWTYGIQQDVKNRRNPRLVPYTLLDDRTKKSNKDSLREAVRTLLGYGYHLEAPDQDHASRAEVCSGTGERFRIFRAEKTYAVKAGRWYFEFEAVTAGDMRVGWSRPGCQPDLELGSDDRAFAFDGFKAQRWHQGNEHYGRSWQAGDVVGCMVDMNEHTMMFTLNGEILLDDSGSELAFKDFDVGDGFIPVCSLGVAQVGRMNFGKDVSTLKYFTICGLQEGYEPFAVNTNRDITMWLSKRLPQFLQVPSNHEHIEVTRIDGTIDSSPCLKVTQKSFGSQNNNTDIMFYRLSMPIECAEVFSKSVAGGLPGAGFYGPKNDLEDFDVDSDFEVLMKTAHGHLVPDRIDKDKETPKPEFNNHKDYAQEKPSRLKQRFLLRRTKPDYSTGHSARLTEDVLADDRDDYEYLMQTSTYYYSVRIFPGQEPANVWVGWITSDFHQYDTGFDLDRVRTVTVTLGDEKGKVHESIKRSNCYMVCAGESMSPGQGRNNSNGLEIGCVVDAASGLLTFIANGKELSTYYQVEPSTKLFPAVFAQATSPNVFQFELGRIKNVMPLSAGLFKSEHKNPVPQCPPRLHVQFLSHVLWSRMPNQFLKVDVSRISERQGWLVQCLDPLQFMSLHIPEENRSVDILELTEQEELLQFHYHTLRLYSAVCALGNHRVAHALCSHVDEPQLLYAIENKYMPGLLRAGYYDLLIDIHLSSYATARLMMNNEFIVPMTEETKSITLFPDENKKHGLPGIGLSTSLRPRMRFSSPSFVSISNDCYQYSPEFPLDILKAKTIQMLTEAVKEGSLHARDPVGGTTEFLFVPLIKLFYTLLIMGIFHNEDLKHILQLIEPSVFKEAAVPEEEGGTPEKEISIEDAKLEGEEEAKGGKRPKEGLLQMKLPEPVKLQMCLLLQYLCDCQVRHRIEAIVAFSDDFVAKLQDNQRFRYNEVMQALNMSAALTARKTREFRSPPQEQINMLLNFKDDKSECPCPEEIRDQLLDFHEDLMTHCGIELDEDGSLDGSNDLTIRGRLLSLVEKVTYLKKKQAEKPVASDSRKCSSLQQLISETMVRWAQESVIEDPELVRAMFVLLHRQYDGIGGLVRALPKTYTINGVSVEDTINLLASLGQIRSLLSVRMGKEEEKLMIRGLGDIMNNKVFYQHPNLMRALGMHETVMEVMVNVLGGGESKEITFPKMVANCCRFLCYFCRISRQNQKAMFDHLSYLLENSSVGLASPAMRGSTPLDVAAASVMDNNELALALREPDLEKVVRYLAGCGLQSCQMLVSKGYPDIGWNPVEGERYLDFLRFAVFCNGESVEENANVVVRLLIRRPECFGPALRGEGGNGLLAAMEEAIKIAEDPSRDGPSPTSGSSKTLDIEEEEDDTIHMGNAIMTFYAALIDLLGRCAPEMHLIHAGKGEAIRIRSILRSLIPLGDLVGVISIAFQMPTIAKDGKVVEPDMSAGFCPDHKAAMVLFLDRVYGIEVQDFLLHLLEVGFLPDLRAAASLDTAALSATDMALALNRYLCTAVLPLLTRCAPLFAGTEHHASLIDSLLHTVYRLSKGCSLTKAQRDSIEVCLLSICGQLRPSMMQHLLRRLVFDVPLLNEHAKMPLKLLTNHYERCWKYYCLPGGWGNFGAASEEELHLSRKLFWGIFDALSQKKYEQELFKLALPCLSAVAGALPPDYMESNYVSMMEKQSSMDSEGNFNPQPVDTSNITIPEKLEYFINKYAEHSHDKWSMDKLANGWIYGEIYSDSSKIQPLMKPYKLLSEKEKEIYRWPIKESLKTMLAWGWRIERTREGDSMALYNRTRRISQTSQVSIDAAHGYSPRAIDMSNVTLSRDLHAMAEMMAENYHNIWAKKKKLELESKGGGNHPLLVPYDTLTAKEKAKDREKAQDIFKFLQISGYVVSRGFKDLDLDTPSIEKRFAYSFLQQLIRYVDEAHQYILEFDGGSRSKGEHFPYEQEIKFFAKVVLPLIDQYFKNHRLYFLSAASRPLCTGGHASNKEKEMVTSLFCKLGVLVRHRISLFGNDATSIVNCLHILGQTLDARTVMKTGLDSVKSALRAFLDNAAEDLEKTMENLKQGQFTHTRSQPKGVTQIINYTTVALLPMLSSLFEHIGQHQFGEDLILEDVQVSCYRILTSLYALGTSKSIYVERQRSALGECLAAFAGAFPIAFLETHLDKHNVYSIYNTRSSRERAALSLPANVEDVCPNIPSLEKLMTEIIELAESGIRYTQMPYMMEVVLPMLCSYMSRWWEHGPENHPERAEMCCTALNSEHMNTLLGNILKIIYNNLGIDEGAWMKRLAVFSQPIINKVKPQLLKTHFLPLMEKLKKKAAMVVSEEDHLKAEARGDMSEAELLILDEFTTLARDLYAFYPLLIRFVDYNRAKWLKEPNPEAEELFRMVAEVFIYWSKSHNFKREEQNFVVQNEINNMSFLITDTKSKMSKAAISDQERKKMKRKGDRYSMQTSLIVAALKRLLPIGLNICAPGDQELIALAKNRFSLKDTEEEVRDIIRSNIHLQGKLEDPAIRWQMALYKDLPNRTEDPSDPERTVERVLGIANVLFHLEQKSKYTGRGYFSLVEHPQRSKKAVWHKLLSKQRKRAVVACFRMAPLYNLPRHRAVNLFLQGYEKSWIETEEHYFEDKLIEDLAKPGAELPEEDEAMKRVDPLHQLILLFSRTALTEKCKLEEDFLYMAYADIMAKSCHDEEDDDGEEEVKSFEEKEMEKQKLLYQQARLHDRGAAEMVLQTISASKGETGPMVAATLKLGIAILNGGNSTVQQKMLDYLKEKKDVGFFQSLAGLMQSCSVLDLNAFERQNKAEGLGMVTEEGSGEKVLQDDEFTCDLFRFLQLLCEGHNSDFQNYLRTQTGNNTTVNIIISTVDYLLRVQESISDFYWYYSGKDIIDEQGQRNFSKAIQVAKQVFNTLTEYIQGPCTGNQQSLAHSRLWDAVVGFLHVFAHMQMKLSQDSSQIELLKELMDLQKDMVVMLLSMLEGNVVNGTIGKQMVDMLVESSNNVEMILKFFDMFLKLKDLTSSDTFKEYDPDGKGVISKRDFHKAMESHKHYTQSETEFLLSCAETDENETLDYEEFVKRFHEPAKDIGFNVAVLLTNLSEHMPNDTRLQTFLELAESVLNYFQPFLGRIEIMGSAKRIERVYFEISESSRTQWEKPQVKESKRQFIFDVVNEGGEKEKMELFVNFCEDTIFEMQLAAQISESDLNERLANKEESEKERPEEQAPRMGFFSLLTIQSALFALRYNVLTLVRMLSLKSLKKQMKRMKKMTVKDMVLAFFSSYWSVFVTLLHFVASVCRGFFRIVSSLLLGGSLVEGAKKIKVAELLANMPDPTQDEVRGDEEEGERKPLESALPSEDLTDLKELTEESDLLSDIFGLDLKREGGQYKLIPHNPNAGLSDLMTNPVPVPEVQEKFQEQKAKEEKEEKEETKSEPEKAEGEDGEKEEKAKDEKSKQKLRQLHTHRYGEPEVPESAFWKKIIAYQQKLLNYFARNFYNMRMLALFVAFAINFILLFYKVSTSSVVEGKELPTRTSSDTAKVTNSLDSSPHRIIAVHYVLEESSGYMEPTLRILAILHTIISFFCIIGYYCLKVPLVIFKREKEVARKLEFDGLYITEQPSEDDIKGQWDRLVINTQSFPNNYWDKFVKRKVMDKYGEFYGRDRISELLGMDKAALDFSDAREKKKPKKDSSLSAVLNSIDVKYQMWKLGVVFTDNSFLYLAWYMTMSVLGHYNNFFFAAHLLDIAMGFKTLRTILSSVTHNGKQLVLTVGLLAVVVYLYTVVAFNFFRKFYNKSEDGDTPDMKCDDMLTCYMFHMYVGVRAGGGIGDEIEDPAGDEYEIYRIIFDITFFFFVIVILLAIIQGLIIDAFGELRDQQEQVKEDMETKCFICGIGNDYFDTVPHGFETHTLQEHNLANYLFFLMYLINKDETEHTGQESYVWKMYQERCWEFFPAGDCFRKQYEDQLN

increase in sarcomere shortening with guanylate cyclase inhibition ([1]; AS 1 mM with ODQ, n=15, p=NS vs. AS 1 mM): 157±40% | calcium spark frequency relative to controls (RyR2; 0.5 mM AS): ~7 times | increase of calcium spark frequency (RyR2; 0.5 mM AS): 7 fold | frequency of calcium sparks (CSF) (RyR2; 0.5 mM AS, controls 4±1): 26±3 sparks/100 μm/s | rise in Ca2+ spark frequency (RyR2; 1 mM AS, n=10-24): 18 fold | individual spark amplitude, rise time and spatial width (RyR2; AS): unaltered | AS-induced increase in spark frequency after thiol (GSH) pre-treatment (RyR2; reduced glutathione preincubation before AS): prevented; also recorded: abrogated
SMILES: [Na+].[Na+].[O-][N+]([O-])=NO [AS, Angeli's salt]
myocyte relaxation hastened (time to 50% re-lengthening) ([1]; AS): 10-20% | time until response plateaued ([1]; AS): 10 to 15 min | increase in sarcomere shortening ([1]; AS 0.5 mM): 73±31% and ~100% | contractility response (sarcomere shortening) after GSH pre-treatment ([1]; AS 0.5 mM after GSH ethyl ester 4 mM for 3 hrs): 57±19% | increase in sarcomere shortening ([1]; AS 1 mM): 131±31% and 117±25% and ~100% | AS concentration above which myocyte contractility rose ([1]; AS 10^-6 to 10^-3 M, C57/BL6 myocytes): > 100 µM | effect on sarcomere shortening ([1]; AS <0.1 mM): no effect | effect of co-application on ISO (2.5 nM)-stimulated sarcomere shortening ([1]; DEA/NO 0.25 mM, AS 0.5 mM): doubled | sarcomere shortening response after GSH pre-incubation ([1]; GSH 4 mM for 3 hrs, compared with 1 mM AS alone, n=14): 58±19% | AS inotropy on co-infusion of N-acetyl-L-cysteine ([1]; NAC 3 mM): abolished | effect of PKG inhibitor Rp-8Br-cGMPs on the agent's inotropy ([1]; Rp-8Br-cGMPs 10 μM pre-treatment): did not alter; also recorded: no impact | effect of PKA inhibitor Rp-CPT-cAMPs on the agent's enhancement of sarcomere shortening ([1]; Rp-CPT-cAMPs 100 μM pre-treatment): did not alter | reversibility of response after discontinuation ([1]; at ≦500 μM, after a similar time period): fully reversible | AS inotropy on co-treatment with thapsigargin ([1]; thapsigargin 3 μM, n=16): 52±14% | positive inotropic effect in Gαq myocytes compared with WT cells ([2]; AS infusion): not significantly different | increase in sarcomere shortening ([2]; AS 250 μM): 22±11% | increase in sarcomere shortening ([2]; AS 500 μM): 40±11% | change of cAMP FRET signal (cAMP): 0.3%±0.1%
